US11420970B1 (NOVARTIS AG, priority 2019, dated 2022)
Like-named read-outs stand apart in the source and are kept apart here.

Legend:
NSD2 [1-1365] = NSD2 [1-1365] (Homo sapiens (Human), UniProt O96028); test: LC-MS/MS-based NSD2 enzymatic assay (SAH production); format: biochemical; conditions: read-out: NSD2 IC50
How it was run: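 SAH formed was measured by LC-MS/MS using d4-SAH as internal standard and an SAH calibration curve. Compounds were preincubated 20 min with NSD2 [1-1365] and SAM; mouse-liver nucleosome then started a 90 min room-temperature reaction (8 nM enzyme, 1 μM SAM, 400 nM nucleosome final, pH 8.0), stopped with TFA.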

[1] = tested on: cellular H3K36me2 level in thyroid carcinoma cell line CGTH-W-1 (NSD2 E1099K); test: H3K36me2 cellular ELISA assay in CGTH-W-1 line; format: cell-based; conditions: Homo sapiens, CGTH-W-1, 72 h, read-out: H3K36me2 ELISA in CGTH-W-1
Experimental: H3K36Me2 Cellular ELISA Assay in CGTH-W-1 Line
An ELISA (enzyme-linked immunosorbent assay) based assay was used to test the ability of candidate compound to reduce cellular H3K36me2 level in thyroid carcinoma cell line CGTH-W-1, carrying NSD2 E1099K gain of function mutation. CGTH-W-1 (DSMZ) cells are maintained in RPM11640 media with 10% FBS and 50 U/ml Penicillin-Streptomycin.
Cells were treated with tested compounds at the desired concentration for 72 hours.
(§1) Histone bound plates were washed and blocked with 5% BSA. […] The abundance of H3K36me2 and total H3 was measured by Chemiluminesce on a plate reader. Cell viability was monitored on a parallel seeded plate with CellTiter-Glo reagent (Promega #G7573).

[2] = tested on: cellular H3K36me2 level in multiple myeloma cell line KMS11 (t(4;14)+); test: H3K36me2 cellular ELISA assay in KMS11-Par line; format: cell-based; conditions: Homo sapiens, KMS-11, ELISA, read-out: H3K36me2 ELISA in KMS11-Par
Experimental: H3K36Me2 Cellular ELISA Assay in KMS11-Par Line
An ELISA (enzyme-linked immunosorbent assay) based assay was used to test the ability of candidate compound to reduce cellular H3K36me2 level in multiple myeloma cell line KMS11 (t(4;14)+). KMS11 (Horizon Discovery Ltd.) cells are maintained in RPM11640 media with 12.5% FBS and 50 U/ml Penicillin-Streptomycin. For assay compound treatment, single cell suspension was prepared in Opti-MEM supplemented with B-27 and N2 supplement (Invitrogen 11058-021, 17504-044, 17502-048) for ELISA and in maintenance media for cellTiter Glo (CTG) viability assay. One day prior to cell treatment, 1,250 KMS11 cells were seeded into 384-well Greiner CellStar TC plate (Greiner #781086) at the final volume of 30 μL/well.
Cells were treated with tested compounds at the desired concentration for 72 hours. Crude histone lysate was extracted by 0.4M HCl following neutralization by 0.5M Sodium phosphate, dibasic (Na2HPO4), pH ˜12.5. Equal amount of histone lysate was loaded to Corning 384-well high biding plate (Corning #3577, black) for H3K36m2 and to Thermo 384-well high binding Nunc plate (Thermo #460372, white) for total H3.
as §1

[3] = NSD2 biochemical activity, class symbols
[4] = KMS11-Par line (t(4;14)+), 72 hours treatment

NSD2 [1-1365], sequence (O96028 whole entry): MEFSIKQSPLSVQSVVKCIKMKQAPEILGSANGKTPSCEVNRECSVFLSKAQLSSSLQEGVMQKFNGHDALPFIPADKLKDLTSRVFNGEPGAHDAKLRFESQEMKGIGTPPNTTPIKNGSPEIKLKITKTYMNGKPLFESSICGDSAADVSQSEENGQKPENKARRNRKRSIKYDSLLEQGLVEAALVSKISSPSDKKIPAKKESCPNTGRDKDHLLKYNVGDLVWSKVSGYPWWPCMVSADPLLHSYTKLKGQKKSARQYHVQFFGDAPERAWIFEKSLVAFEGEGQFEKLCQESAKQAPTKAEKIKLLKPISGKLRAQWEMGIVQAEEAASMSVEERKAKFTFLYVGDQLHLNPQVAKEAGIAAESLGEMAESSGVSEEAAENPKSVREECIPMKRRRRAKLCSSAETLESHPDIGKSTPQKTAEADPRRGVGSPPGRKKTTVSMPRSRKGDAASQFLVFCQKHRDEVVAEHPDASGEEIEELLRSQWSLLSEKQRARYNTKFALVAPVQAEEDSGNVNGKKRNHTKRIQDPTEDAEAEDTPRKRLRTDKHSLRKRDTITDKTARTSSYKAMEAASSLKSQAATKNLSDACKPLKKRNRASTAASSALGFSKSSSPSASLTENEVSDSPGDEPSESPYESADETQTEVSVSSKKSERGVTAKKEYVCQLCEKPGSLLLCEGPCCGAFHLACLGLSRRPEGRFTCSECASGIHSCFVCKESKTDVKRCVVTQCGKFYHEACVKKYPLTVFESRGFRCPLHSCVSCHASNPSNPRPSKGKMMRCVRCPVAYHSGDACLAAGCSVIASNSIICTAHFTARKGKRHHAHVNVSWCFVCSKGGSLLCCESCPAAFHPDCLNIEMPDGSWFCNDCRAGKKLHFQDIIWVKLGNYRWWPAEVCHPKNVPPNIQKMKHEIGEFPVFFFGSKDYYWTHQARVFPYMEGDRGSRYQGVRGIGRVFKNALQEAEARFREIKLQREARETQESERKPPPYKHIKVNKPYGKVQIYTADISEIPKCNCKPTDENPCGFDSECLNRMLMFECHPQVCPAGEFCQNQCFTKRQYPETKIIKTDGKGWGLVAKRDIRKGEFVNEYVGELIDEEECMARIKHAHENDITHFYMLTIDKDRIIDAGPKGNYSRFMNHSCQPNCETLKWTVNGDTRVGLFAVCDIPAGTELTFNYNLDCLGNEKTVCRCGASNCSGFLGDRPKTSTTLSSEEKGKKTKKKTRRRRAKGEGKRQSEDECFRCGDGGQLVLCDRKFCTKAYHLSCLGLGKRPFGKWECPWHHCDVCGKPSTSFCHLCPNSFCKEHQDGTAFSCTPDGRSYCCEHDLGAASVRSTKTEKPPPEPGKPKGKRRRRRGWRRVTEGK

What does the source list for `Nc1ncnc2c1ncn2Cc1cc(-c2ccc3c(c2)COC3)ncc1N1CCCC(N)(c2cccc(Cl)n2)C1` (centres unmarked) [Example 179, 9-((5-(3-amino-3-(6-chloropyridin-2-yl)piperidin-1-yl)-2-(1,3-dihydroisobenzofuran-5-yl)pyridin-4-yl)methyl)-9H-purin-6-amine]?
IC50 (NSD2 [1-1365]): 10 to 1000 nM; IC50 [1]: 1420 nM

`Cn1ncc2cc(-c3cc(Cn4cnc5c(N)ncnc54)c(N4CCCC(N)(c5cccc(Cl)n5)C4)cn3)ccc21` (centres unmarked) [Example 225, 9-((5-(3-amino-3-(6-chloropyridin-2-yl)piperidin-1-yl)-2-(1-methyl-1H-indazol-5-yl)pyridin-4-yl)methyl)-9H-purin-6-amine] was tested. Which IC50 (NSD2 [1-1365]) did it give?
The IC50 was 10 to 1000 nM.

And the IC50 [1]?
The IC50 was 1960 nM.

Which results are given for `COc1cccc([C@@]2(N)CCCN(c3cnc(-c4ccc(F)c(F)c4)cc3Cn3cnc4c(N)ncnc43)C2)n1` [Example 178, (R)-9-((5-(3-amino-3-(6-methoxypyridin-2-yl)piperidin-1-yl)-2-(3,4-difluorophenyl)pyridin-4-yl)methyl)-9H-purin-6-amine]?
IC50 (NSD2 [1-1365]): 1 to 10 nM; IC50 [1]: 230 nM

`Nc1ncnc2c1ncn2Cc1cc(-c2ccc3c(c2)OCO3)ncc1N1CCCC(N)(c2cccc(Cl)n2)C1` (centres unmarked) [Example 186, 9-((5-(3-amino-3-(6-chloropyridin-2-yl)piperidin-1-yl)-2-(benzo[d][1,3]dioxo1-5-yl)pyridin-4-yl)methyl)-9H-purin-6-amine] was tested. Which IC50 (NSD2 [1-1365]) did it give?
The IC50 was 10 to 1000 nM.

What about the IC50 [1] of the same compound?
Its IC50 is 967 nM.

For `Nc1ncnc2c1ncn2Cc1cc(-c2ccc(F)cc2)ncc1N1CCCC(N)(c2csc(Cl)n2)C1` (centres unmarked) [Example 281, 9-((5-(3-amino-3-(2-chlorothiazol-4-yl)piperidin-1-yl)-2-(4-fluorophenyl)pyridin-4-yl)methyl)-9H-purin-6-amine], which IC50 (NSD2 [1-1365]) is on record?
Its IC50 is 10 to 1000 nM.

And the IC50 [1]?
The IC50 was 826 nM.

How did the IC50 (NSD2 [1-1365]) turn out when `COc1ccc(-c2cc(Cn3cnc4c(N)ncnc43)c(N3CCC[C@](N)(c4cccc(Cl)n4)C3)cn2)cc1` [Example 211, (R)-9-((5-(3-amino-3-(6-chloropyridin-2-yl)piperidin-1-yl)-2-(4-methoxyphenyl)pyridin-4-yl)methyl)-9H-purin-6-amine] was run?
Its IC50 is 1 to 10 nM.

And the IC50 [1]?
The IC50 was 387 nM.

Which IC50 (NSD2 [1-1365]) does the source give for `COCC1CC(N)CN(c2cnc(-c3ccc(F)c(F)c3)cc2Cn2cnc3c(N)ncnc32)C1` (centres unmarked) [Example 308, 9-((5-(3-amino-5-(methoxymethyl)piperidin-1-yl)-2-(3,4-difluorophenyl)pyridin-4-yl)methyl)-9H-purin-6-amine] here?
The IC50 was 10 to 1000 nM.

And the IC50 ([2]; KMS11-Par line, 72 hours)?
Its IC50 is 27500 nM.

For `Cn1ccc(C[C@@]2(N)CCCN(c3cnc(-c4ccc(F)cc4)cc3Cn3cnc4c(N)nccc43)C2)n1` [Example 49, (S)-1-((5-(3-amino-3-((1-methyl-1H-pyrazol-3-yl)methyl)piperidin-1-yl)-2-(4-fluorophenyl)pyridin-4-yl)methyl)-1H-imidazo[4,5-c]pyridin-4-amine], which IC50 (NSD2 [1-1365]; [3]) is on record?
The IC50 was 1 to 10 nM.

And the IC50 [2, 4]?
The IC50 was 12700 nM.

Which IC50 (NSD2 [1-1365]) does the source give for `CCc1cccc([C@@]2(N)CCCN(c3cnc(-c4ccc(F)cc4)cc3Cn3cnc4c(N)ncnc43)C2)n1` [Example 202, (R)-9-((5-(3-amino-3-(6-ethylpyridin-2-yl)piperidin-1-yl)-2-(4-fluorophenyl)pyridin-4-yl)methyl)-9H-purin-6-amine] here?
Its IC50 is 1 to 10 nM.

And the IC50 ([2]; KMS11-Par line, 72 hours)?
Its IC50 is 264 nM.

Which IC50 (NSD2 [1-1365]; [3]) does the source give for `Nc1ncnc2c1ncn2Cc1cc(-c2ccc(F)c(F)c2)ncc1N1CCCC(N)(Cc2cccc(F)n2)C1` (centres unmarked) [Example 69, 9-((5-(3-amino-3-((6-fluoropyridin-2-yl)methyl)piperidin-1-yl)-2-(3,4-difluorophenyl)pyridin-4-yl)methyl)-9H-purin-6-amine] here?
The IC50 was 10 to 1000 nM.

What about the IC50 [2, 4] of the same compound?
Its IC50 is 1150 nM.

What does the source list for `CN(C)C(=O)CC[C@@]1(N)CCCN(c2cnc(-c3ccc(F)c(F)c3)cc2Cn2cnc3c(N)ncnc32)C1` [Example 322, (S)-3-(3-amino-1-(4-((6-amino-9H-purin-9-yl)methyl)-6-(3,4-difluorophenyl)pyridin-3-yl)piperidin-3-yl)-N,N-dimethylpropanamide]?
IC50 (NSD2 [1-1365]): 10 to 1000 nM; IC50 ([2]; KMS11-Par line, 72 hours): > 33700 nM

`Cc1cccc(C[C@@]2(N)CCCN(c3cnc(-c4ccc(F)c(F)c4)cc3Cn3cnc4c(N)ncnc43)C2)n1` [Example 55, (S)-9-((5-(3-amino-3-((6-methylpyridin-2-yl)methyl)piperidin-1-yl)-2-(3,4-difluorophenyl)pyridin-4-yl)methyl)-9H-purin-6-amine] was tested. Which IC50 (NSD2 [1-1365]; [3]) did it give?
The IC50 was 1 to 10 nM.

What about the IC50 [2, 4] of the same compound?
Its IC50 is 910 nM.

`Nc1nccc2c1ncn2Cc1cc(-c2ccc(F)c(F)c2)ncc1N1CCC[C@](N)(Cc2ccccn2)C1` [Example 51, (S)-1-((5-(3-amino-3-(pyridin-2-ylmethyl)piperidin-1-yl)-2-(3,4-difluorophenyl)pyridin-4-yl)methyl)-1H-imidazo[4,5-c]pyridin-4-amine] was tested. Which IC50 (NSD2 [1-1365]; [3]) did it give?
Its IC50 is 1 to 10 nM.

What about the IC50 [2, 4] of the same compound?
Its IC50 is 1530 nM.

Which IC50 (NSD2 [1-1365]) does the source give for `Nc1ncnc2c1ncn2Cc1cc(-c2ccc(F)c(F)c2)ncc1N1CCC[C@](N)(c2ccncc2F)C1` [Example 248, (S)-9-((5-(3-amino-3-(3-fluoropyridin-4-yl)piperidin-1-yl)-2-(3,4-difluorophenyl)pyridin-4-yl)methyl)-9H-purin-6-amine] here?
The IC50 was 10 to 1000 nM.

What about the IC50 ([2]; KMS11-Par line, 72 hours) of the same compound?
Its IC50 is 2880 nM.

With `Nc1ncnc2c1ncn2Cc1cc(-c2ccc(F)c(F)c2)ncc1N1CC[C@@H](O)[C@](N)(c2cccc(Cl)n2)C1` [Example 302, (3R,4R)-3-amino-1-(4-((6-amino-9H-purin-9-yl)methyl)-6-(3,4-difluorophenyl)pyridin-3-yl)-3-(6-chloropyridin-2-yl)piperidin-4-ol] as the compound, how does the IC50 (NSD2 [1-1365]) read?
Its IC50 is 10 to 1000 nM.

What about the IC50 ([2]; KMS11-Par line, 72 hours) of the same compound?
Its IC50 is 563 nM.

Which IC50 (NSD2 [1-1365]) does the source give for `Cn1cc([C@@]2(N)CCCN(c3cnc(-c4ccc(F)c(F)c4)cc3Cn3cnc4c(N)ncnc43)C2)cn1` [Example 269, (S)-9-((5-(3-amino-3-(1-methyl-1H-pyrazol-4-yl)piperidin-1-yl)-2-(3,4-difluorophenyl)pyridin-4-yl)methyl)-9H-purin-6-amine] here?
Its IC50 is 1 to 10 nM.

What about the IC50 ([2]; KMS11-Par line, 72 hours) of the same compound?
The IC50 was 5680 nM.

With `C[C@@H](c1ccccn1)[C@@]1(N)CCCN(c2cnc(-c3ccc(F)c(F)c3)cc2Cn2cnc3c(N)ncnc32)C1` [Example 65, 9-((5-((S)-3-amino-3-((R)-1-(pyridin-2-yl)ethyl)piperidin-1-yl)-2-(3,4-difluorophenyl)pyridin-4-yl)methyl)-9H-purin-6-amine] as the compound, how does the IC50 (NSD2 [1-1365]; [3]) read?
The IC50 was 10 to 1000 nM.

What about the IC50 [2, 4] of the same compound?
The IC50 was 1130 nM.

`Cc1cc2c(cnn2C)cc1-c1cc(Cn2cnc3c(N)ncnc32)c(N2CCC[C@](N)([C@@H](O)C(F)F)C2)cn1` [Example 136, (R)-1-((R)-3-amino-1-(4-((6-amino-9H-purin-9-yl)methyl)-6-(1,6-dimethyl-1H-indazol-5-yl)pyridin-3-yl)piperidin-3-yl)-2,2-difluoroethan-1-ol] was tested. Which IC50 (NSD2 [1-1365]; [3]) did it give?
The IC50 was 10 to 1000 nM.

What about the IC50 [2, 4] of the same compound?
Its IC50 is 8800 nM.

Which IC50 (NSD2 [1-1365]) does the source give for `Nc1nccc2c1ncn2Cc1cc(-c2ccc(F)c(F)c2)ncc1N1CCC[C@](N)(c2cccc(C(F)F)n2)C1` [Example 260, (R)-1-((5-(3-amino-3-(6-(difluoromethyl)pyridin-2-yl)piperidin-1-yl)-2-(3,4-difluorophenyl)pyridin-4-yl)methyl)-1H-imidazo[4,5-c]pyridin-4-amine] here?
Its IC50 is 10 to 1000 nM.

What about the IC50 ([2]; KMS11-Par line, 72 hours) of the same compound?
The IC50 was 1520 nM.

What does the source list for `CCO[C@H](C)C1(N)CCCN(c2cnc(-c3ccc(F)c(F)c3)cc2Cn2cnc3c(N)ncnc32)C1` (stereo partly drawn) [Example 99, 9-((5-(3-amino-3-((R)-1-ethoxyethyl)piperidin-1-yl)-2-(3,4-difluorophenyl)pyridin-4-yl)methyl)-9H-purin-6-amine]?
IC50 (NSD2 [1-1365]; [3]): 10 to 1000 nM; IC50 [2, 4]: 21000 nM

`Nc1nccc2c1ncn2Cc1cc(-c2ccc(F)cc2)ncc1N1CCCC(N)(c2ccccn2)C1` (centres unmarked) [Example 266, 1-((5-(3-amino-3-(pyridin-2-yl)piperidin-1-yl)-2-(4-fluorophenyl)pyridin-4-yl)methyl)-1H-imidazo[4,5-c]pyridin-4-amine] was tested. Which IC50 (NSD2 [1-1365]) did it give?
The IC50 was 1 to 10 nM.

What about the IC50 ([2]; KMS11-Par line, 72 hours) of the same compound?
Its IC50 is 436 nM.

For `Cc1cccc([C@@]2(N)CCCN(c3cnc(-c4ccc(F)cc4)cc3Cn3cnc4c(N)nccc43)C2)n1` [Example 261, (R)-1-((5-(3-amino-3-(6-methylpyridin-2-yl)piperidin-1-yl)-2-(4-fluorophenyl)pyridin-4-yl)methyl)-1H-imidazo[4,5-c]pyridin-4-amine], which IC50 (NSD2 [1-1365]) is on record?
Its IC50 is 1 to 10 nM.

What about the IC50 ([2]; KMS11-Par line, 72 hours) of the same compound?
The IC50 was 235 nM.
